Among the data in patent publication US10858347B2, “Multicyclic compounds and uses thereof” (Karyopharm Therapeutics Inc., priority 2015, dated 2020) are IC50 values, retold here.

One experiment deals with MS751 cells. The experiment can be described thus: MTT cell proliferation assay, MS751 cells. The class given is cell-based. The following applies: MS751 cells (human cervix squamous cell carcinoma, lymph node metastasis); approximately 64-72 hours incubation. As to the method:
(§1) The MTT cell proliferation assay was used to study the cytotoxic properties of the compounds. The assay was performed according to the method described by Roche Molecular Biochemicals, with minor modifications. The assay is based on the cleavage of the tetrazolium salt, MTT, in the presence of an electron-coupling reagent. The water-insoluble formazan salt produced must be solubilized in an additional step. Cells grown in a 96-well tissue culture plate were incubated with the MTT solution for approximately 4 hours. After this incubation period, a water-insoluble formazan dye formed. After solubilization, the formazan dye was quantitated using a scanning multi-well spectrophotometer (ELISA reader). […] The cells were seeded at 5,000-10,000 cells in each well of 96-well plate in 100 μL of fresh culture medium and were allowed to attach overnight. The stock solutions of the compounds were diluted in 100 μL cell culture medium to obtain eight concentrations of each test compound, ranging from 1 nM to 30 μM. […] All optical densities were measured at 490 nm using a Vmax Kinetic Microplate Reader (Molecular Devices). In most cases, the assay was performed in duplicate and the results were presented as a mean percent inhibition to the negative control±SE. The following formula was used to calculate the percent of inhibition: Inhibition (%)=(1−(ODo/OD))×100.
(§2) The compounds were tested against MS751, Z138 and 3T3 cells. The MS751 cell line is derived from a metastasis to lymph node of human cervix from a patient diagnosed with squameous cell carcinoma of the cervix. The Z138 cell line is a mature B-cell acute lymphoblastic leukemia cell line derived from a patient with chronic lumphocytic leukemia. 3T3 cells are standard fibroblast cells; they were originally isolated from Swiss mouse embryo tissue.
On the technique in general: Tetrazolium dyes change colour on reduction, which living cells bring about.

The subject of a further experiment is Z138 cells. The experiment can be described thus: MTT cell proliferation assay, Z138 cells. The experiment is classed as cell-based, human. The following applies: Homo sapiens, Z-138; Z138 cells (mature B-cell acute lymphoblastic leukemia cell line); approximately 64-72 hours incubation. How it is done: as §1, §2
The next experiment concerns 3T3 cells. The experiment can be described thus: MTT cell proliferation assay, 3T3 cells. The class given is cell-based. The following applies: NIH3T3; 3T3 cells (standard fibroblast cells, Swiss mouse embryo); approximately 64-72 hours incubation. As to the method: as §1, §2

Structures are written as SMILES.

For `Nc1ccc(CNC(=O)NCc2cc3cc(-c4ccc(C(=O)N5CCC(F)(F)CC5)cc4)cc(-c4ccc(F)cc4)c3o2)cn1` [Compound 100, 1-((6-aminopyridin-3-yl)methyl)-3-((5-(4-(4,4-difluoropiperidine-1-carbonyl)phenyl)-7-(4-fluorophenyl)benzofuran-2-yl)methyl)urea], the half-maximal inhibitory concentration (IC50) (as a rule, the point on the concentration scale where inhibition reaches its midpoint) in the experiment with MS751 cells was less than 0.1 µM; in the experiment with Z138 cells, less than 0.1 µM; with 3T3 cells, 0.1 to 5 µM.
With `O=C(NCCc1cc2cc(-c3ccc(C(=O)N4CCC(F)(F)CC4)cc3)cc(-c3ccc(F)cc3)c2o1)N1Cc2ccncc2C1` [Compound 107, N-(2-(5-(4-(4,4-difluoropiperidine-1-carbonyl)phenyl)-7-(4-fluorophenyl)benzofuran-2-yl)ethyl)-1H-pyrrolo[3,4-c]pyridine-2(3H)-carboxamide], the 50% inhibitory concentration (IC50) is less than 0.1 µM in the experiment on MS751 cells, less than 0.1 µM in the experiment with Z138 cells and 0.1 to 5 µM in the experiment on 3T3 cells.
With `N#C/N=C(/NCc1ccc(N)nc1)NCc1cc2cc(-c3ccc(C(=O)N4CCC(F)(F)CC4)cc3)cc(-c3ccc(F)cc3)c2o1` [Compound 119, (Z)-1-((6-aminopyridin-3-yl)methyl)-2-cyano-3-((5-(4-(4,4-difluoropiperidine-1-carbonyl)phenyl)-7-(4-fluorophenyl)benzofuran-2-yl)methyl)guanidine], the figures for the IC50 in the experiment with MS751 cells, in the experiment on Z138 cells and with 3T3 cells were 0.1 to 5 µM, 0.1 to 5 µM and greater than 10 µM, respectively.
As for `O=C(NCc1cc2cc(-c3ccc(C(=O)N4CCC(F)(F)CC4)cc3)cc(-c3ccc(F)cc3)c2o1)N1Cc2ccncc2C1` [Compound 102, N-((5-(4-(4,4-difluoropiperidine-1-carbonyl)phenyl)-7-(4-fluorophenyl)benzofuran-2-yl)methyl)-1H-pyrrolo[3,4-c]pyridine-2(3H)-carboxamide], the concentration for half-maximal inhibition (IC50) in the experiment with MS751 cells was less than 0.1 µM; in the experiment with Z138 cells it was less than 0.1 µM; in the experiment on 3T3 cells it was 0.1 to 5 µM.
Turning to `O=C(NCCOc1ccc(-c2ccc(C(=O)N3CCC(F)(F)CC3)cc2)cc1-c1ccc(F)cc1)N1Cc2ccncc2C1` [Compound 121, N-(2-((4-(4,4-difluoropiperidine-1-carbonyl)-4″-fluoro-[1,1′:3′,1″-terphenyl]-4′-yl)oxy)ethyl)-1,3-dihydro-2H-pyrrolo[3,4-c]pyridine-2-carboxamide], the IC50 in the experiment on MS751 cells was less than 0.1 µM; in the experiment on Z138 cells it was less than 0.1 µM; with 3T3 cells, greater than 10 µM.
With `O=C(NCc1cc2cc(-c3ccc(C(=O)N4CCC(F)(F)CC4)cc3)cc(-c3ccc(F)cc3F)c2o1)N1Cc2ccncc2C1` [Compound 108, N-((7-(2,4-difluorophenyl)-5-(4-(4,4-difluoropiperidine-1-carbonyl)phenyl)benzofuran-2-yl)methyl)-1H-pyrrolo[3,4-c]pyridine-2(3H)-carboxamide], the results for the half-inhibitory concentration (IC50) with MS751 cells, in the experiment with Z138 cells and with 3T3 cells were less than 0.1 µM, less than 0.1 µM and greater than 10 µM, respectively.
